Values of other authors as cited in patent publication US9375436B2, “Androgen treatment in females” (priority 2004, dated 2016).

Test system: older mice
Conditions: cited from earlier work

For COC1=C(OC)C(=O)C(C/C=C(\C)CC/C=C(\C)CC/C=C(\C)CC/C=C(\C)CC/C=C(\C)CC/C=C(\C)CC/C=C(\C)CC/C=C(\C)CC/C=C(\C)CCC=C(C)C)=C(C)C1=O [CoQ10, coenzyme Q10], the oocytes numbers is listed as “increases oocytes numbers”.
